# From patent US20190376046A1, “METHODS FOR MANIPULATING CELL FATE” (The McLean Hospital Corporation, priority 2017, published 2019)
# Legend:
# [1] = test system: human dermal fibroblasts (hDFs); test: Live cell metabolic analysis (Seahorse XF, OCR/ECAR) in fibroblasts; format: cell-based; details: 0.2 mM; Y4+SIRT2 KD fibroblasts
# Experimental: Oxygen consumption rate (OCR) and extracellular acidification rates (ECAR) were measured using the XFp8 or XF24 analyzer (Seahorse Bioscience, MA) according to the manufacturer's instruction. Briefly, cells were plated into wells of an XF cell culture microplate and incubated at 37° C. in a CO2 incubator for 24 h to ensure attachment. The assay was started after cells were equilibrated for 1 h in XF assay medium supplemented with 10 mM glucose, 5 mM sodium pyruvate and 2 mM glutamine in a non-CO2 incubator. Mitochondrial activity between hDFs and hESCs/parental hDFs and iPSCs were monitored through sequential injections of 1 μM oligomycin, […] FCCP and 1 μM rotenone/antimycin A to calculate basal respiration rates (baseline OCR—rotenone/antimycin A OCR), ATP dependent (basal respiration rate—oligomycin OCR), maximum respiration (FCCP OCR— rotenone/antimycin A OCR), and oxidative reserve (maximum respiration rate—basal respiration rate). Glycolytic processes were measured by serial injections of 10 mM glucose, 1 μM oligomycin, and 100 mM 2-deoxyglucose to calculate basal glycolytic rate, glycolytic capacity (in response to oligomycin), and glycolytic reserve (glycolytic capacity—basal rate). Each plotted value was normalized to total protein quantified using a Bradford protein assay (Bio-Rad).
# [2] = test system: hDFs; test: Human iPSC induction, AP-positive colonies; format: cell-based; details: 1 mM or higher concentration; fibroblasts
# Experimental: Human dermal fibroblasts (hDFs) were cultured in Dulbecco's modified Minimal Essential Medium (DMEM; Invitrogen, Carlsbad, Calif.) supplemented with 2 mM L-glutamine (Invitrogen), 10% fetal bovine serum (FBS; Invitrogen), 100 U/ml penicillin and 100 μg/ml streptomycin (Invitrogen). For iPSC induction, DMEM/F-12 medium supplemented with 2 mM L-glutamine (Invitrogen), 1 mM […] (Invitrogen), 1× non-essential amino acids (NEAA; Invitrogen), 20% knock-out serum replacement (KSR; Invitrogen), 100 U/ml penicillin, 100 μg/ml streptomycin (Invitrogen) and 10 ng/ml basic fibroblast growth factor (bFGF; Invitrogen) was used as the reprogramming medium. Human ESC lines and hiPSC lines were maintained in Essential 8 medium (Invitrogen) using Matrigel® Matrix (Corning Life Sciences, Tewksbury, Mass.) and passaged using 0.5 mM EDTA (Invitrogen) for gentle dissociation.
# Human iPSCs were generated using lentiviral particles by inducible lentiviral vectors or STEMCCA vectors to introduce the OSKM factors (Oct4, Sox2, Klf4, and c-Myc) into fibroblasts^49. ES-like colonies formed after 3 weeks of viral infection and the observed ES-like colonies were handpicked and transferred onto mouse feeder cells (MEF)-plated or Matrigel-coated tissue culture plates to generate iPSC lines. iPSC colonies were mechanically picked until iPSC lines were established.
# [3] = target: T1, SIRT1 (Homo sapiens, UniProt Q96EB6); details: cited from earlier work
# T1 sequence (Q96EB6 1-747): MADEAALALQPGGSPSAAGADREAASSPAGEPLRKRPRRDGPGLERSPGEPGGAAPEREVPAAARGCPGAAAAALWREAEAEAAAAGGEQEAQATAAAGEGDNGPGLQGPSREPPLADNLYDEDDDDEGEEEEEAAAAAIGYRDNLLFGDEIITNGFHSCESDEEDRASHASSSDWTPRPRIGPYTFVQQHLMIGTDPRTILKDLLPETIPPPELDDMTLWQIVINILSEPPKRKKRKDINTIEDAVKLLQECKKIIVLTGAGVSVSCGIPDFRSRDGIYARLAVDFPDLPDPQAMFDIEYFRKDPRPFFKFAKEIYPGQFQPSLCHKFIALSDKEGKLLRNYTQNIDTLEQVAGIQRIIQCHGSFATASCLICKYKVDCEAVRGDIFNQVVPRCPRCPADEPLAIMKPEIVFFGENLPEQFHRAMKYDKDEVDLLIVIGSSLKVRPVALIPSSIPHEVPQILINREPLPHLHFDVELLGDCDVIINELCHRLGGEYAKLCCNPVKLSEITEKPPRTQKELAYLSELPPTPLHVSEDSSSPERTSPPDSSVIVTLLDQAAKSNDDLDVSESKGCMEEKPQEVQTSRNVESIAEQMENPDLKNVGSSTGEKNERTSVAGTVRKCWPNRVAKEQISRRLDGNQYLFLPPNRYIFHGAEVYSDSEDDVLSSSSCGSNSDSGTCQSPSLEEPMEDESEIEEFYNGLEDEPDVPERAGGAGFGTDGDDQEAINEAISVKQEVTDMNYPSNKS
# [4] = test system: hPSCs (H9, H7, hiPSC-1, hiPSC-2); test: Annexin V/7-AAD staining (apoptosis); format: cell-based, human; details: pretreatment; hPSCs with Dox-induced SIRT2 OE
# [5] = test system: PI3K; details: read-out: IC50 (PI3K inhibitor); cited from earlier work
# [6] = target: T2, SIRT2 (Homo sapiens, UniProt Q8IXJ6); details: relative to SIRT1; cited from earlier work
# T2 sequence (Q8IXJ6 1-389): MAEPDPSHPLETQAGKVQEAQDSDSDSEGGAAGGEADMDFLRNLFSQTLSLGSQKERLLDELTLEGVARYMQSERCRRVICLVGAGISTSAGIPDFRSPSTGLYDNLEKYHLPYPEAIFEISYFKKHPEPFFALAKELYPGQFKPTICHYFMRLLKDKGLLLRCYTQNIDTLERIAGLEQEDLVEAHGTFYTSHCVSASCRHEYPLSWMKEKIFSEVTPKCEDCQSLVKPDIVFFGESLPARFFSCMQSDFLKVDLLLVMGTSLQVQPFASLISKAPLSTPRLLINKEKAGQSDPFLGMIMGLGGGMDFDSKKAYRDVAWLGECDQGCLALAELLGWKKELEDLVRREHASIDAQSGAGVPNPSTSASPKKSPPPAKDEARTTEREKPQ
# [7] = target: T3, SIRT3 (Homo sapiens, UniProt Q9NTG7); details: cited from earlier work
# T3 sequence (Q9NTG7 1-399): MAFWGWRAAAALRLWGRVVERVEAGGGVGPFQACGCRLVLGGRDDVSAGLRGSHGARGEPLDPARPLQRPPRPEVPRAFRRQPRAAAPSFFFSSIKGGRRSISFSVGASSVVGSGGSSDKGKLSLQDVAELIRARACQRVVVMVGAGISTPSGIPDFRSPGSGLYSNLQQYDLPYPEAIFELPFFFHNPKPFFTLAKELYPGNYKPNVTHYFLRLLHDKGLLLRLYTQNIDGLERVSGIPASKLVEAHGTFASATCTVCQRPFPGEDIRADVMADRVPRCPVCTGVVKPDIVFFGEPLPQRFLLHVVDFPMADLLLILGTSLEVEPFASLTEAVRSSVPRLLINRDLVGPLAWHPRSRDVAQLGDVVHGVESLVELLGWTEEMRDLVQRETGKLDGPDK
# [8] = test system: SIRT2; test: SIRT2 expression by qRT-PCR and western blot after pre-miRNA transfection; format: cell-based, human; details: fibroblasts transfected with pre-miRNA
# Experimental: Samples (50 μg) were loaded onto a 12% SDS-PAGE and separated by electrophoresis followed by transfer onto a piece of Immun-Blot PVDF membrane (Bio-Rad, Hercules, Calif.). After transfer, the membrane was blocked at room temperature with Tris-buffered saline (TBS) containing 0.1% Tween-20 and 5% (w/v) skim milk for 3-5 h and then incubated overnight at 4° C. with primary antibody. The membrane was washed three times with TBS containing 0.05% Tween-20 (TBST) and then incubated for 2 h with the appropriate secondary antibody (Pierce, Rockford, Ill.). After washing twice with TBST and once with TBS, bound antibodies were detected by chemiluminescence using the SuperSignal® West Pico kit (Pierce). […]
# Total RNA was extracted from cells by using the Direct-zol RNA purification Kit (Zymo research, Irvine, Calif.) and cDNA was synthesized using the ThermoScript™ RT-PCR system (Invitrogen). For quantitative analysis, qRT-PCR (Bio-Rad) was performed using SsoAdvanced SYBR Green supermix (Bio-Rad) with target genes specific primers. […]
# [9] = test system: CDS fragments of SIRT2 (MREs); test: Luciferase reporter assay; format: cell-based, human; details: 293T cells, psicheck2 SIRT2 CDS fragments
# Source text: Human SIRT1 or SIRT2 was PCR-amplified from hESCs (H9) or hDFs, respectively, then cloned into the pGEM®-T Easy vector (Promega, Madison, Wis.). The 2A sequence of the Thoseaasigna virus (T2A)-linked EGFP was amplified from pCXLE-EGFP plasmid (#27082; Addgene, Cambridge, Mass.) by […], cloned into the […] vector. The SIRT1 and SIRT2 fragments were then cut off from the corresponding vectors and inserted into the pGEM-T-T2A-EGFP to generate pGEM-T-SIRT1-T2A-EGFP and pGEM-T-SIRT2-T2A-EGFP, respectively. The SIRT1-T2A-EGFP and SIRT2-T2A-EGFP constructs were confirmed by sequencing and then introduced into the EcoRI site of FUW-tetO vector (Addgene), respectively. Human AldoA-Myc constructs, the AldoA fragment was PCR-amplified from hESCs (H9), and then cloned into the pcDNA3.1-Myc/His vector (Invitrogen). For the psicheck2 constructs, the CDS fragments were cloned in downstream of a Renilla luciferase open reading frame. […]
# The Promega dual luciferase assay kit was used to perform the luciferase assay according to the manufacturer's instruction. In brief, cell lysates were analyzed for luciferase activity using the dual luciferase system in which two luciferase enzymes, one (from Renilla reniformis) containing the experimental target sequence and another (from firefly) containing the control. […]
compound,measurement,setting,value
"O=CC[C@@H](O)[C@H](O)[C@H](O)CO [2DG, 2-deoxy-glucose]",glycolytic flux,[1],decreased the glycolytic flux in Y4+SIRT2 KD to the level of Y4 only without 2DG
same,generation of iPSC-like colonies,[2],completely blocked
N#C/C(=C\c1ccc(-c2cc(Cl)ccc2Cl)o1)C(=O)Nc1cccc2ncccc12 [AGK2],effect on SIRT1,[3]; at 10-fold higher levels than SIRT2 IC50,minimally affects
CC(=O)N[C@@H](CS)C(=O)O [N-acetyl-L-Cysteine],SIRT2-induced cell death,[4],rescued
O=c1c(O)c(-c2ccc(O)c(O)c2)oc2cc(O)cc(O)c12 [Quercetin],IC50,[5],2.4 to 5.4 µM
O=C(Nc1ccccc1-c1cn2c(CN3CCNCC3)csc2n1)c1cnc2ccccc2n1 [SRT1720],EC50,"[3]; cell-free assay, read-out: EC50 (SIRT1 activator)",160 nM
same,fold less potent for SIRT2,[6],> 230 fold
same,fold less potent for SIRT3,[7]; relative to SIRT1,> 230 fold
CN(C)CCCCC(=O)Nc1ccc(NC(=S)NC(=O)c2ccc(C(C)(C)C)cc2)cc1 [Tenovin-6],IC50,"[7]; purified human SIRT3 in vitro, read-out: IC50 protein deacetylase activity of SIRT3",67 µM
CCCCCCCCCCCCCC(=S)NCCCC[C@H](NC(=O)OCc1ccccc1)C(=O)Nc1ccccc1 [Thiomyristoyl],inhibition of SIRT3,[7]; at 200 μM,does not inhibit SIRT3 even at 200 μM
"pre-miR-200c-5p: precursor miRNA oligomer of miR-200c-5p, CGUCUUACCCAGCAGUGUUUGG (SEQ ID NO: 1) (further chemistry not given here; listed as Homo sapiens)",SIRT2 expression (mRNA and protein),[8],significantly decreased
same,reporter expression of both MREs,[9],significantly decreased
